Data from patent US11364285B2, “Methods, compositions, and molecular targets that exploit synergies and symbioses in the termite gut” (priority 2016, dated 2022).

Assays:
[1] = system: aerobic, culturable bacterial community from the R. flavipes digestive tract; experiment: Imidacloprid-loaded discs on plated gut homogenates; assay type: cell-based; details: concentrations of 1-1000-fold higher than used in the feeding assays
Description: (§1) After incubation at 26° C. for 24 hours, plates were examined—spots producing 3-10 CFUs were used to estimate the total number of aerobic culturable bacteria per termite. In addition, dilutions of gut homogenates were directly plated onto nutrient agar; discs loaded with serial dilutions of imidacloprid were added to these plates to examine its direct impact on the culturable bacteria.

[2] = system: gut bacteria (16S rDNA abundance); experiment: 16S qPCR of relative bacterial DNA abundance in guts; assay type: in vivo, R. flavipes; details: 48 hours exposure; two colonies
Description: as §1
DNA was isolated from termite whole guts following control or imidacloprid treatments in bioassays using the Epicentre Yeast DNA extraction kit, including RNase treatment (Madison, Wis.). Following isolation, DNA samples were subjected to phenol-chloroform cleanup and concentrated using sodium acetate-ethanol precipitation. qPCR reactions were performed in triplicate with SensiFast SYBR No ROX kit (Bioline; Taunton, Mass.), 50 ng of sample DNA, nuclease-free water, and degenerate 16S rDNA primers. Primers amplified a 291 bp fragment containing the V4 hypervariable region of the 16S rRNA gene. Host DNA was quantified using primers specific to an apparent single-copy host gene, Actin 5C-1. Data were normalized to Actin 5C-1 to determine the relative abundance of 16S amplicons in the control and imidacloprid-treated DNA preparations.

Reticulitermes flavipes = experiment: Termite behavior and pathology observed in the bioassays (grooming, tunneling, light repellency); assay type: in vivo; details: sublethal concentration
[3] = system: hindgut protist symbiont populations; experiment: Protist counts after imidacloprid treatment; assay type: in vivo, R. flavipes; details: 48 hr imidacloprid exposure
Description: To determine if imidacloprid indirectly or directly impacted protist and bacteria gut symbiont populations, post-hoc tests were performed using multiple independent termite colonies. Protist counts were made using five laboratory colonies as previously described. Bacterial CFU counts were done via aerobic culturing using two laboratory colonies; one that had been in the lab for >2 years (“colony 1”) and one collected from the field 1 month earlier (“colony 2”). […] Whole guts dissected from individual termites were sonicated in 250 μL of PBS, serially diluted, and spotted (2 μL) onto nutrient agar plates.

[4] = system: host gut and protist/symbiont genes; assay type: in vivo
Description: After two days, a subset of ten termites was removed from each of the replicate colony treatments (20 total samples), cold-immobilized, surface-sterilized by a serial rinse in 0.3% sodium hypochlorite (1×) and sterilized water (2×), and dissected on Parafilm to collect digestive tracts, including salivary glands. Digestive tracts were transferred into RLA Lysis Buffer (Promega, Fitchburg, Wis., USA) and stored at −70° C. until RNA isolation. RNA extraction and cDNA synthesis was performed.
Experiments were designed after MIAME guidelines. A type II microarray design was used with a common-reference strategy. The common reference consisted of a normalized blend of all RNA samples included in the experiment. This common reference was co-hybridized against each replicate sample on single microarrays. Dye swaps were performed between replicate samples and references to check for potential dye impacts on spot intensity. […] Specifically, such microarrays contained a mix of ˜14,500 cDNA oligonucleotides representing 10,500 host gut and protist/symbiont genes, including stereotypical immune response genes, thereby providing simultaneous assessments of host and protist gene expression. Reported analyses consisted of five pairwise comparisons to a common control as denoted by the numbers 1-5 in FIG. 4. More specific microarray data are provided in S15-S20 Tables of Sen et al. 2015, PLoS ONE 10(4): e0123391 (the “Sen Article”), which is hereby incorporated by reference herein in its entirety. […] Genbank accession numbers for sequences at each microarray position are provided in S21-S23 Tables of the Sen Article.
Before comparative analysis, the individual signal intensity values obtained from the microarray probes were log-transformed (using 2 as the base) and normalized among all individual samples included in the study. […] After the data were normalized, t-tests were used to make probe-by-probe comparisons among treatments. In each comparison, a p-value and fold change were computed for all microarray loci. In addition to p-values, q-values were computed. While the p-value measures the minimum statistical false-positive rate incurred when setting a threshold for test significance, the q-value measures the minimum false-discovery rate incurred when calling that test significant.
The generated contigs and the remaining orphan sequences were used for further analyses using the program BLAST2GO for identification and annotation. By using the inbuilt BLASTx algorithm, these sequences were used as queries in BLASTx searches against the Genbank non-redundant (nr) database with an e-value cut-off of ≤1e-03. The putative identification, annotation, and Gene Ontology (GO) terms for the sequences also were obtained through BLAST2GO. KEGG analyses were also performed.

amidohydrolase 2 gene = experiment: qPCR of amidohydrolase 2 expression after kanamycin treatment and B. bassiana challenge; assay type: in vivo, R. flavipes; details: 5% kanamycin 48 h, then B. bassiana; compared to water treated controls
Source text: To investigate whether symbiont removal reduced amidohydrolase expression, groups of 10 workers from three independent colonies were subjected to a treatment of 5% kanamycin (controls received water only) for 48-hours and subsequently challenged with a low dose of B. bassiana conidia (as above). 5% Kanamycin was used for bacterial symbiont removal based on extensive preliminary research. These bioassays were held for 48-hours before termite guts were dissected for RNA extraction. cDNA was synthesized using the Bioline SensiFast cDNA Synthesis kit using 1 μg total RNA as template. qPCR was performed using the SensiFast no ROX SYBR Master Mix (Bioline) and amidohydrolase 2 gene specific primers as well as Actin 5C as a reference gene (see Table S.2 of the Peterson & Scharf Article).

[5] = system: termite workers challenged with B. bassiana; experiment: Post-hoc bioassay of termite susceptibility to B. bassiana after kanamycin; assay type: in vivo, R. flavipes
Description: Similarly, post-hoc bioassays were performed to determine if 5% kanamycin treatment was sufficient to increase termite susceptibility to B. bassiana. As above, groups of 10 termites were treated with 5% kanamycin or water (controls) for 48-hours, and then inoculated with a low dose of B. bassiana conidia suspended in 0.5% Tween-20 or a blank of 0.5% Tween-20 solution (controls). All together, these four groups allowed the investigators to account for any baseline mortality caused by antibiotic treatment. These bioassays were held for 7 days before scoring survivorship.

[6] = gut, 2 days post-exposure, vs solvent control
[7] = passing array positions, before contig formation

SMILES | Growth suppression of culturable gut bacteria by imidacloprid-impregnated paper discs [1] | Effect on total bacterial DNA abundance (16S PCR signals) [2] | Termite behaviors (tunneling, grooming, light repellency) (Reticulitermes flavipes) | Reduction of representative protist groups [3] | Treated termite colonies with reduced protist populations [3] | Effect on expression of innate immune / antimicrobial genes ([4]; gut, 2 days) | Differentially expressed contigs and singletons, Overall [4, 6] | Downregulated contigs and singletons, Host [4, 6] | Downregulated contigs and singletons, Mixed [4, 6] | Downregulated contigs and singletons, Symbiont [4, 6] | Downregulated contigs and singletons, Totals [4, 6] | Upregulated contigs and singletons, Mixed [4, 6] | Upregulated contigs and singletons, Symbiont [4, 6] | Upregulated contigs and singletons, Totals [4, 6] | Downregulated array positions [4, 7] | Upregulated transcripts in the array (array positions) [4, 7] | Reduction of amidohydrolase 2 gene expression in pathogen challenged termites (amidohydrolase 2 gene) | Increase in termite susceptibility to B. bassiana ([5]; 5% kanamycin 48 h, normalized mortality at 7 days post inoculation) | Increase in termite worker susceptibility to B. bassiana ([5]; 5% kanamycin, 7 days)
O=[N+]([O-])NC1=NCCN1Cc1ccc(Cl)nc1 [I, imidacloprid] | failed to suppress the growth | did not detect any impact | neither produced tunnels nor were repelled by light | 25-50% | 5 of 6 | failed to substantially alter | 393 | 8 | 3 | 205 | 216 | 1 | 19 | 177 | 504 | 260 |  |  | 
NC[C@H]1O[C@H](O[C@H]2[C@H](O)[C@@H](O[C@H]3O[C@H](CO)[C@@H](O)[C@H](N)[C@H]3O)[C@H](N)C[C@@H]2N)[C@H](O)[C@@H](O)[C@@H]1O [kanamycin] |  |  |  |  |  |  |  |  |  |  |  |  |  |  |  |  | ~5 × | 3 × | 3 fold
